Earlier results, collected in publication PMC8513935.
One block for each compound: values may come before it.

Legend:
[1] = log P octanol/water from commercial databases, averaged (the ESI); details: Octanol (wet), 25 C
[2] = experimental, compiled by the authors from the literature (the ESI cites the sources)
[3] = derived by the authors as gas->solvent minus gas->water (a hypothetical dry solvent; the ESI), not a two-phase measurement

- log K of transfer, water to solvent [1]: 3.73 log10 K
- log K of transfer, gas to solvent ([2]; 1,2-Dichloroethane, 25 C): 2.34 log10 K
- log K of transfer, gas to solvent ([2]; Acetonitrile, 25 C): 1.82 log10 K
- log K of transfer, gas to solvent ([2]; Butan-1-ol, 25 C): 2.29 log10 K
- log K of transfer, gas to solvent ([2]; Butanone, 25 C): 2.39 log10 K
- log K of transfer, gas to solvent ([2]; Butyronitrile, 25 C): 2.21 log10 K
- log K of transfer, gas to solvent ([2]; CCl4, 25 C): 2.81 log10 K
- log K of transfer, gas to solvent ([2]; Chlorobenzene, 25 C): 2.78 log10 K
- log K of transfer, gas to solvent ([2]; Chloroform, 25 C): 2.71 log10 K
- log K of transfer, gas to solvent ([2]; Cyclohexanone, 25 C): 2.3 log10 K
- log K of transfer, gas to solvent ([2]; Dichloromethane, 25 C): 2.59 log10 K
- log K of transfer, gas to solvent ([2]; Ethanol, 25 C): 2.16 log10 K
- log K of transfer, gas to solvent ([2]; Hexadecane, 25 C): 2.5 log10 K
- log K of transfer, gas to solvent ([2]; Hexane, 25 C): 2.82 log10 K
- log K of transfer, gas to solvent ([2]; Methanol, 25 C): 1.95 log10 K
- log K of transfer, gas to solvent ([2]; Pentan-1-ol, 25 C): 2.42 log10 K
- log K of transfer, gas to solvent ([2]; Perfluoroalkane, 25 C): 1.81 log10 K
- log K of transfer, gas to solvent ([2]; Propan-1-ol, 25 C): 2.15 log10 K
- log K of transfer, gas to solvent ([2]; Propan-2-ol, 25 C): 2.16 log10 K
- log K of transfer, gas to solvent ([2]; Propanone, 25 C): 2.24 log10 K
- log K of transfer, gas to solvent ([2]; Propionitrile, 25 C): 2.08 log10 K
- log K of transfer, gas to solvent ([2]; Tetrahydrofuran, 25 C): 2.7 log10 K
- log K of transfer, gas to solvent ([2]; Toluene, 25 C): 2.65 log10 K
- log K of transfer, gas to solvent ([2]; Water, 25 C): -1.84 log10 K
- log K of transfer, water to solvent ([3]; 1,2-Dichloroethane, 25 C): 4.18 log10 K
- log K of transfer, water to solvent ([3]; Acetone, 25 C): 4.08 log10 K
- log K of transfer, water to solvent ([3]; Acetonitrile, 25 C): 3.66 log10 K
- log K of transfer, water to solvent ([3]; Butan-1-ol, 25 C): 4.13 log10 K
- log K of transfer, water to solvent ([3]; Butanone, 25 C): 4.23 log10 K
- log K of transfer, water to solvent ([3]; Butyronitrile, 25 C): 4.05 log10 K
- log K of transfer, water to solvent ([3]; CCl4, 25 C): 4.65 log10 K
- log K of transfer, water to solvent ([3]; Chlorobenzene, 25 C): 4.62 log10 K
- log K of transfer, water to solvent ([3]; Chloroform, 25 C): 4.55 log10 K
- log K of transfer, water to solvent ([3]; Cyclohexanone, 25 C): 4.14 log10 K
- log K of transfer, water to solvent ([3]; Dichloromethane, 25 C): 4.43 log10 K
- log K of transfer, water to solvent ([3]; Ethanol, 25 C): 4 log10 K
- log K of transfer, water to solvent ([3]; Hexadecane, 25 C): 4.34 log10 K
- log K of transfer, water to solvent ([3]; Hexane, 25 C): 4.66 log10 K
- log K of transfer, water to solvent ([3]; Methanol, 25 C): 3.79 log10 K
- log K of transfer, water to solvent ([3]; Pentan-1-ol, 25 C): 4.26 log10 K
- log K of transfer, water to solvent ([3]; Perfluoroalkane, 25 C): 3.65 log10 K
- log K of transfer, water to solvent ([3]; Propan-1-ol, 25 C): 3.99 log10 K
- log K of transfer, water to solvent ([3]; Propan-2-ol, 25 C): 4 log10 K
- log K of transfer, water to solvent ([3]; Propionitrile, 25 C): 3.92 log10 K
- log K of transfer, water to solvent ([3]; Tetrahydrofuran, 25 C): 4.54 log10 K
- log K of transfer, water to solvent ([3]; Toluene, 25 C): 4.49 log10 K
SMILES: CCCC(C)C

- log K of transfer, water to solvent [1]: 2.58 log10 K
- log K of transfer, gas to solvent ([2]; 1,2-Dichloroethane, 25 C): 6.17 log10 K
- log K of transfer, gas to solvent ([2]; CCl4, 25 C): 5.36 log10 K
- log K of transfer, gas to solvent ([2]; Chlorobenzene, 25 C): 5.8 log10 K
- log K of transfer, gas to solvent ([2]; Chloroform, 25 C): 5.97 log10 K
- log K of transfer, gas to solvent ([2]; Dichloromethane, 25 C): 6.16 log10 K
- log K of transfer, gas to solvent ([2]; Hexadecane, 25 C): 4.73 log10 K
- log K of transfer, gas to solvent ([2]; Hexane, 25 C): 4.79 log10 K
- log K of transfer, gas to solvent ([2]; Perfluoroalkane, 25 C): 3.17 log10 K
- log K of transfer, gas to solvent ([2]; Water, 25 C): 4.5 log10 K
- log K of transfer, water to solvent ([3]; 1,2-Dichloroethane, 25 C): 1.67 log10 K
- log K of transfer, water to solvent ([3]; CCl4, 25 C): 0.86 log10 K
- log K of transfer, water to solvent ([3]; Chlorobenzene, 25 C): 1.3 log10 K
- log K of transfer, water to solvent ([3]; Chloroform, 25 C): 1.47 log10 K
- log K of transfer, water to solvent ([3]; Dichloromethane, 25 C): 1.66 log10 K
- log K of transfer, water to solvent ([3]; Hexadecane, 25 C): 0.237 log10 K
- log K of transfer, water to solvent ([3]; Hexane, 25 C): 0.29 log10 K
- log K of transfer, water to solvent ([3]; Perfluoroalkane, 25 C): -1.33 log10 K
SMILES: CCc1ccc(O)cc1

SMILES: C/C=C/C
- log K of transfer, water to solvent [1]: 2.31 log10 K
- log K of transfer, gas to solvent ([2]; Hexadecane, 25 C): 1.66 log10 K
- log K of transfer, gas to solvent ([2]; Propanone, 25 C): 1.81 log10 K
- log K of transfer, gas to solvent ([2]; Water, 25 C): -0.98 log10 K
- log K of transfer, water to solvent ([3]; Acetone, 25 C): 2.79 log10 K
- log K of transfer, water to solvent ([3]; Hexadecane, 25 C): 2.64 log10 K

- log K of transfer, water to solvent [1]: 0.795 log10 K
- log K of transfer, gas to solvent ([2]; Chloroform, 25 C): 4.28 log10 K
- log K of transfer, gas to solvent ([2]; Cyclohexane, 25 C): 3.23 log10 K
- log K of transfer, gas to solvent ([2]; Hexadecane, 25 C): 3.02 log10 K
- log K of transfer, gas to solvent ([2]; Octan-1-ol, 25 C): 3.22 log10 K
- log K of transfer, gas to solvent ([2]; Water, 25 C): 2.31 log10 K
- log K of transfer, water to solvent ([3]; Chloroform, 25 C): 1.97 log10 K
- log K of transfer, water to solvent ([3]; Cyclohexane, 25 C): 0.92 log10 K
- log K of transfer, water to solvent ([3]; Hexadecane, 25 C): 0.707 log10 K
- log K of transfer, water to solvent ([3]; Octan-1-ol(dry), 25 C): 0.91 log10 K
SMILES: C1CCOCC1

- log K of transfer, water to solvent [1]: 3.37 log10 K
- log K of transfer, gas to solvent ([2]; Heptan-1-ol, 25 C): 2.57 log10 K
- log K of transfer, gas to solvent ([2]; Hexadecane, 25 C): 2.91 log10 K
- log K of transfer, gas to solvent ([2]; Pentan-1-ol, 25 C): 2.57 log10 K
- log K of transfer, gas to solvent ([2]; Water, 25 C): -1.17 log10 K
- log K of transfer, water to solvent ([3]; Heptan-1-ol, 25 C): 3.74 log10 K
- log K of transfer, water to solvent ([3]; Hexadecane, 25 C): 4.07 log10 K
- log K of transfer, water to solvent ([3]; Pentan-1-ol, 25 C): 3.74 log10 K
SMILES: CC1CCCC1

SMILES: CC(C)=O
- log K of transfer, water to solvent [1]: -0.24 log10 K
- log K of transfer, gas to solvent ([2]; 1,2-Dichloroethane, 25 C): 3.13 log10 K
- log K of transfer, gas to solvent ([2]; Acetonitrile, 25 C): 3.14 log10 K
- log K of transfer, gas to solvent ([2]; Benzene, 25 C): 2.78 log10 K
- log K of transfer, gas to solvent ([2]; Butan-1-ol, 25 C): 2.57 log10 K
- log K of transfer, gas to solvent ([2]; Butanone, 25 C): 2.92 log10 K
- log K of transfer, gas to solvent ([2]; CCl4, 25 C): 2.38 log10 K
- log K of transfer, gas to solvent ([2]; Chlorobenzene, 25 C): 2.66 log10 K
- log K of transfer, gas to solvent ([2]; Chloroform, 25 C): 3.29 log10 K
- log K of transfer, gas to solvent ([2]; Cyclohexane, 25 C): 1.88 log10 K
- log K of transfer, gas to solvent ([2]; Cyclohexanone, 25 C): 2.79 log10 K
- log K of transfer, gas to solvent ([2]; Di-n-butyl ether, 25 C): 2.25 log10 K
- log K of transfer, gas to solvent ([2]; Dichloromethane, 25 C): 3.39 log10 K
- log K of transfer, gas to solvent ([2]; Diethyl Ether, 25 C): 2.57 log10 K
- log K of transfer, gas to solvent ([2]; Ethanol, 25 C): 2.77 log10 K
- log K of transfer, gas to solvent ([2]; Hexadecane, 25 C): 1.7 log10 K
- log K of transfer, gas to solvent ([2]; Hexane, 25 C): 1.96 log10 K
- log K of transfer, gas to solvent ([2]; Methanol, 25 C): 2.89 log10 K
- log K of transfer, gas to solvent ([2]; Octan-1-ol, 25 C): 2.31 log10 K
- log K of transfer, gas to solvent ([2]; Pentan-1-ol, 25 C): 2.49 log10 K
- log K of transfer, gas to solvent ([2]; Propan-2-ol, 25 C): 2.46 log10 K
- log K of transfer, gas to solvent ([2]; Propanone, 25 C): 3.04 log10 K
- log K of transfer, gas to solvent ([2]; Tetrahydrofuran, 25 C): 2.85 log10 K
- log K of transfer, gas to solvent ([2]; Toluene, 25 C): 2.63 log10 K
- log K of transfer, gas to solvent ([2]; Water, 25 C): 2.83 log10 K
- log K of transfer, water to solvent ([3]; 1,2-Dichloroethane, 25 C): 0.3 log10 K
- log K of transfer, water to solvent ([3]; Acetone, 25 C): 0.21 log10 K
- log K of transfer, water to solvent ([3]; Acetonitrile, 25 C): 0.31 log10 K
- log K of transfer, water to solvent ([3]; Benzene, 25 C): -0.05 log10 K
- log K of transfer, water to solvent ([3]; Butan-1-ol, 25 C): -0.26 log10 K
- log K of transfer, water to solvent ([3]; Butanone, 25 C): 0.09 log10 K
- log K of transfer, water to solvent ([3]; CCl4, 25 C): -0.45 log10 K
- log K of transfer, water to solvent ([3]; Chlorobenzene, 25 C): -0.17 log10 K
- log K of transfer, water to solvent ([3]; Chloroform, 25 C): 0.46 log10 K
- log K of transfer, water to solvent ([3]; Cyclohexane, 25 C): -0.948 log10 K
- log K of transfer, water to solvent ([3]; Cyclohexanone, 25 C): -0.041 log10 K
- log K of transfer, water to solvent ([3]; Di-n-butyl ether, 25 C): -0.58 log10 K
- log K of transfer, water to solvent ([3]; Dichloromethane, 25 C): 0.56 log10 K
- log K of transfer, water to solvent ([3]; Diethyl Ether, 25 C): -0.26 log10 K
- log K of transfer, water to solvent ([3]; Ethanol, 25 C): -0.06 log10 K
- log K of transfer, water to solvent ([3]; Hexadecane, 25 C): -1.13 log10 K
- log K of transfer, water to solvent ([3]; Hexane, 25 C): -0.867 log10 K
- log K of transfer, water to solvent ([3]; Methanol, 25 C): 0.06 log10 K
- log K of transfer, water to solvent ([3]; Octan-1-ol(dry), 25 C): -0.52 log10 K
- log K of transfer, water to solvent ([3]; Pentan-1-ol, 25 C): -0.34 log10 K
- log K of transfer, water to solvent ([3]; Propan-2-ol, 25 C): -0.37 log10 K
- log K of transfer, water to solvent ([3]; Tetrahydrofuran, 25 C): 0.02 log10 K
- log K of transfer, water to solvent ([3]; Toluene, 25 C): -0.2 log10 K
